Reference: patent US12595230B2, “Substituted 6,7-dihydro-5H-benzo[7]annulene compounds and their derivatives, processes for their preparation and therapeutic uses thereof” (Sanofi, priority 2020, dated 2026)

Biological target: T1, ERα (Homo sapiens, UniProt P03372)
T1 construct: host or cells: MCF7
T1 sequence (P03372 1-595): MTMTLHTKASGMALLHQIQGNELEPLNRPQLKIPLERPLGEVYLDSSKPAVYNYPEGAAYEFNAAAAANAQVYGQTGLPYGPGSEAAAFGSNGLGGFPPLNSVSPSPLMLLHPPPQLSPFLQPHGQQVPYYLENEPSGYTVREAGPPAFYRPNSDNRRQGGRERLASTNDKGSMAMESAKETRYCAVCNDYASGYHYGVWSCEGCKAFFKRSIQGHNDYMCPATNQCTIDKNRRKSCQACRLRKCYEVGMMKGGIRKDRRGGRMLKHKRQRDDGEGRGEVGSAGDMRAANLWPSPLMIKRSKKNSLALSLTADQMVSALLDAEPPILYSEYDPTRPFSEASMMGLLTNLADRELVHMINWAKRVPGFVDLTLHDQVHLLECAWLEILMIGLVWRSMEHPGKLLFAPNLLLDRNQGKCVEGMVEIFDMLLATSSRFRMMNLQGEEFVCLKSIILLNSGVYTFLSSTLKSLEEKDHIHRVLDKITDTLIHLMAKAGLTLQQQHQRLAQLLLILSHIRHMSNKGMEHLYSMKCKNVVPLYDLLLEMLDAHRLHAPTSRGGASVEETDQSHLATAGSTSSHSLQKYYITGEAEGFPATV
Assay: Estrogen receptor degradation activity: breast cancer cell ERα in cell western assay (MCF7 cells)
Format: cell-based
Details: for % Degradation At 0.3 μM: 4 hours, relative to fulvestrant 0.1 μM positive control; for IC50 / DC50: 4 hours post compound addition, concentration which degrades 50% of the estrogen receptor; for DC50: read-out: Degradation IC50
In short: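 Compounds were applied to MCF7 cells in stripped-serum, phenol red-free medium for 4 h at final 0.3–0.0000018 μM, with fulvestrant (0.1 μM) as control. Value: IC50 (nM) for 50% ERα degradation.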

SMILES: O=C(O)c1ccc2c(c1)CCCC(c1cccc(F)c1C(F)(F)F)=C2c1ccc(CC2CN(CCC(F)F)C2)cc1 [Example 278, 9-(4-((1-(3,3-difluoropropyl)azetidin-3-yl)methyl)phenyl)-8-(3-fluoro-2-(trifluoromethyl)phenyl)-6,7-dihydro-5H-benzo[7]annulene-3-carboxylic acid]
- % Degradation At 0.3 μM: 84%
- IC50: 0.2 nM

SMILES: Cc1cc(F)ccc1C1=C(c2ccc(CC3CN(CCC(F)F)C3)cc2)c2ccc(C(=O)O)cc2CCC1 [Example 279, 9-(4-((1-(3,3-difluoropropyl)azetidin-3-yl)methyl)phenyl)-8-(4-fluoro-2-methylphenyl)-6,7-dihydro-5H-benzo[7]annulene-3-carboxylic acid]
- % Degradation At 0.3 μM: 84%
- DC50: 0.2 nM

SMILES: O=C(O)c1ccc2c(c1)CCCC(c1cccc(Cl)c1C(F)(F)F)=C2c1ccc(CC2CN(CCC(F)F)C2)cc1 [Example 280, 8-(3-chloro-2-(trifluoromethyl)phenyl)-9-(4-((1-(3,3-difluoropropyl)azetidin-3-yl)methyl)phenyl)-6,7-dihydro-5H-benzo[7]annulene-3-carboxylic acid]
- % Degradation At 0.3 μM: 86%
- DC50: 0.3 nM

SMILES: O=C(O)c1ccc2c(c1)CCCC(c1ccc(F)cc1F)=C2c1ccc(CC2CN(CCC(F)F)C2)cc1 [Example 281, 8-(2,4-difluorophenyl)-9-(4-((1-(3,3-difluoropropyl)azetidin-3-yl)methyl)phenyl)-6,7-dihydro-5H-benzo[7]annulene-3-carboxylic acid]
- % Degradation At 0.3 μM: 84%
- DC50: 0.4 nM

SMILES: Cc1cc(Cl)ccc1C1=C(c2ccc(CC3CN(CCC(F)F)C3)cc2)c2ccc(C(=O)O)cc2CCC1 [Example 282, 8-(4-chloro-2-methylphenyl)-9-(4-((1-(3,3-difluoropropyl)azetidin-3-yl)methyl)phenyl)-6,7-dihydro-5H-benzo[7]annulene-3-carboxylic acid]
- % Degradation At 0.3 μM: 86%
- DC50: 0.4 nM

SMILES: COc1c(C(=O)O)ccc2c1CCCC(c1ccc(F)cc1C(F)(F)F)=C2c1ccc(CC2CN(CCCF)C2)cc1.Cl [Example 283, 8-(4-fluoro-2-(trifluoromethyl)phenyl)-9-(4-((1-(3-fluoropropyl)azetidin-3-yl)methyl)phenyl)-4-methoxy-6,7-dihydro-5H-benzo[7]annulene-3-carboxylic acid hydrochloride]
- % Degradation At 0.3 μM: 90%
- DC50: 93.3 nM

SMILES: Cl.O=C(O)c1ccc2c(c1)CCCC(c1c(F)cc(F)cc1C(F)F)=C2c1ccc(CC2CN(CCCF)C2)cc1 [Example 284, 8-(2-(difluoromethyl)-4,6-difluorophenyl)-9-(4-((1-(3-fluoropropyl)azetidin-3-yl)methyl)phenyl)-6,7-dihydro-5H-benzo[7]annulene-3-carboxylic acid hydrochloride]
- % Degradation At 0.3 μM: 96%
- DC50: 0.3 nM

SMILES: Cc1c(F)ccc(C2=C(c3ccc(CC4CN(CCC(F)F)C4)cc3)c3ccc(C(=O)O)cc3CCC2)c1C [Example 285, 9-(4-((1-(3,3-difluoropropyl)azetidin-3-yl)methyl)phenyl)-8-(4-fluoro-2,3-dimethylphenyl)-6,7-dihydro-5H-benzo[7]annulene-3-carboxylic acid]
- % Degradation At 0.3 μM: 89%
- DC50: 0.4 nM

SMILES: O=C(O)c1ccc2c(c1)CCCC(c1cccc(C(F)(F)F)c1Cl)=C2c1ccc(CC2CN(CCC(F)F)C2)cc1 [Example 286, 8-(2-chloro-3-(trifluoromethyl)phenyl)-9-(4-((1-(3,3-difluoropropyl)azetidin-3-yl)methyl)phenyl)-6,7-dihydro-5H-benzo[7]annulene-3-carboxylic acid]
- % Degradation At 0.3 μM: 88%
- DC50: 0.3 nM

SMILES: Cc1c(C2=C(c3ccc(CC4CN(CCC(F)F)C4)cc3)c3ccc(C(=O)O)cc3CCC2)cccc1C(F)(F)F [Example 287, 9-(4-((1-(3,3-difluoropropyl)azetidin-3-yl)methyl)phenyl)-8-(2-methyl-3-(trifluoromethyl)phenyl)-6,7-dihydro-5H-benzo[7]annulene-3-carboxylic acid]
- % Degradation At 0.3 μM: 86%
- DC50: 0.4 nM

SMILES: O=C(O)c1ccc2c(c1)CCCC(c1cccc(C(F)(F)F)c1F)=C2c1ccc(CC2CN(CCC(F)F)C2)cc1 [Example 288, 9-(4-((1-(3,3-difluoropropyl)azetidin-3-yl)methyl)phenyl)-8-(2-fluoro-3-(trifluoromethyl)phenyl)-6,7-dihydro-5H-benzo[7]annulene-3-carboxylic acid]
- % Degradation At 0.3 μM: 81%
- DC50: 0.5 nM

SMILES: O=C(O)c1ccc2c(c1)CCCC(c1ccc(Cl)cc1C(F)(F)F)=C2c1ccc(CC2CN(CCC(F)F)C2)cc1 [Example 289, 8-(4-chloro-2-(trifluoromethyl)phenyl)-9-(4-((1-(3,3-difluoropropyl)azetidin-3-yl)methyl)phenyl)-6,7-dihydro-5H-benzo[7]annulene-3-carboxylic acid]
- % Degradation At 0.3 μM: 86%
- DC50: 0.3 nM

SMILES: O=C(O)c1ccc2c(c1)CCCC(c1ccc(F)c(CC(F)(F)F)c1)=C2c1ccc(CC2CN(CCCF)C2)cc1 [Example 290, 8-(4-fluoro-3-(2,2,2-trifluoroethyl)phenyl)-9-(4-((1-(3-fluoropropyl)azetidin-3-yl)methyl)phenyl)-6,7-dihydro-5H-benzo[7]annulene-3-carboxylic acid]
- % Degradation At 0.3 μM: 84%
- DC50: 0.8 nM

SMILES: O=C(O)c1ccc2c(c1)CCCC(c1ncc(Cl)cc1C(F)(F)F)=C2c1ccc(CC2CN(CCC(F)F)C2)cc1 [Example 291, 8-(5-chloro-3-(trifluoromethyl)pyridin-2-yl)-9-(4-((1-(3,3-difluoropropyl)azetidin-3-yl)methyl)phenyl)-6,7-dihydro-5H-benzo[7]annulene-3-carboxylic acid]
- % Degradation At 0.3 μM: 84%
- DC50: 0.8 nM

SMILES: Cc1c(C2=C(c3ccc(CC4CN(CCC(F)F)C4)cc3)c3ccc(C(=O)O)cc3CCC2)ccc(Cl)c1F [Example 292, 8-(4-chloro-3-fluoro-2-methylphenyl)-9-(4-((1-(3,3-difluoropropyl)azetidin-3-yl)methyl)phenyl)-6,7-dihydro-5H-benzo[7]annulene-3-carboxylic acid]
- % Degradation At 0.3 μM: 93%
- DC50: 0.4 nM

SMILES: Cc1c(Cl)cccc1C1=C(c2ccc(CC3CN(CCC(F)F)C3)cc2)c2ccc(C(=O)O)cc2CCC1 [Example 293, 8-(3-chloro-2-methylphenyl)-9-(4-((1-(3,3-difluoropropyl)azetidin-3-yl)methyl)phenyl)-6,7-dihydro-5H-benzo[7]annulene-3-carboxylic acid]
- % Degradation At 0.3 μM: 86%
- DC50: 0.6 nM

SMILES: O=C(O)c1ccc2c(c1)CCCC(CC1CCC1)=C2c1ccc(CC2CN(CCCF)C2)cc1 [Example 294, 8-(cyclobutylmethyl)-9-(4-((1-(3-fluoropropyl)azetidin-3-yl)methyl)phenyl)-6,7-dihydro-5H-benzo[7]annulene-3-carboxylic acid]
- % Degradation At 0.3 μM: 92%
- IC50: 0.2 nM

SMILES: O=C(O)c1ccc2c(c1)CCCC(c1cc(CC(F)(F)F)ccc1F)=C2c1ccc(CC2CN(CCCF)C2)cc1 [Example 295, 8-(2-fluoro-5-(2,2,2-trifluoroethyl)phenyl)-9-(4-((1-(3-fluoropropyl)azetidin-3-yl)methyl)phenyl)-6,7-dihydro-5H-benzo[7]annulene-3-carboxylic acid]
- % Degradation At 0.3 μM: 86%
- DC50: 0.7 nM

SMILES: O=C(O)c1ccc2c(c1)CCCC(c1cccc(F)c1C(F)F)=C2c1ccc(CC2CN(CCCF)C2)cc1 [Example 296, 8-(2-(difluoromethyl)-3-fluorophenyl)-9-(4-((1-(3-fluoropropyl)azetidin-3-yl)methyl)phenyl)-6,7-dihydro-5H-benzo[7]annulene-3-carboxylic acid]
- % Degradation At 0.3 μM: 91%
- DC50: 0.7 nM

SMILES: O=C(O)c1ccc2c(c1)CCCC(c1cccc(CC(F)F)c1)=C2c1ccc(CC2CN(CCCF)C2)cc1 [Example 297, 8-(3-(2,2-difluoroethyl)phenyl)-9-(4-((1-(3-fluoropropyl)azetidin-3-yl)methyl)phenyl)-6,7-dihydro-5H-benzo[7]annulene-3-carboxylic acid]
- % Degradation At 0.3 μM: 81%
- DC50: 0.7 nM

SMILES: O=C(O)c1ccc2c(c1)CCCC(c1cccc(CC(F)(F)F)c1)=C2c1ccc(CC2CN(CCCF)C2)cc1 [Example 298, 9-(4-((1-(3-fluoropropyl)azetidin-3-yl)methyl)phenyl)-8-(3-(2,2,2-trifluoroethyl)phenyl)-6,7-dihydro-5H-benzo[7]annulene-3-carboxylic acid]
- % Degradation At 0.3 μM: 82%
- DC50: 0.5 nM

SMILES: O=C(O)c1ccc2c(c1)CCCC(c1nc(Cl)ccc1C(F)(F)F)=C2c1ccc(CC2CN(CCCF)C2)cc1 [Example 300, 8-(6-chloro-3-(trifluoromethyl)pyridin-2-yl)-9-(4-((1-(3-fluoropropyl)azetidin-3-yl)methyl)phenyl)-6,7-dihydro-5H-benzo[7]annulene-3-carboxylic acid]
- % Degradation At 0.3 μM: 88%
- DC50: 11.2 nM
